Data set [1] can be described thus: In vivo dosing of compounds in mouse (pharmacokinetics, PO and i.v.). The note with it: female, Balb/C, whole blood, oral dose of Example 32 50 mg/kg. The method, then:
Example 140. In Vivo Dosing of Compounds in Mouse
Mouse pharmacokinetics of Examples 32 and 135 were studied in female Balb/C mice. Animals were not fasted prior to the study and had access to water and certified rodent diet ad libitum during the study. The mice were weighed on the day of the study and the individual dose volumes were adjusted on a per kg body weight basis.
Oral dosing. The mice were dosed by oral gavage. Example 135 was dosed as a suspension in 1% methyl cellulose solution (10 mL/kg). Example 32 was dosed as a suspension in a formulation containing Betadex sulfobutyl ether sodium/PVP (polyvinyl pyrrolidone)/0.1% Citrate buffer pH 3 (20:5:75) (10 mL/kg).
Intravenous dosing. The mice were dosed i.v. via the tail vein. The dose volume was 2 mL/kg of a solution of Example 32 (0.2 mg/mL) in DMSO/ethanol/water/propylene glycol (PG) (2:8:50:40).
Study samples. Blood was collected (exactly 20 μL per time point) from the saphenous vein of each animal into K2EDTA-coated capillaries. […] The compounds were quantified in blood by means of LC-MS/MS.
Standard PK parameters were calculated using non-compartmental analysis in Phoenix WinNonLin 6.4 (Certara, Princeton, N.J.)
(§1) The bioavailabilty (F) was calculated using the equation below, where AUC is the area under the curve for the oral and i.v. dosing routes and D is the dose given i.v. or orally. […]

Another data set addresses T1, human IL-17AA (Homo sapiens, UniProt Q16552).
T1 construct: host or cells: HEK (human embryonic kidney) cells
T1 sequence (Q16552 24-155): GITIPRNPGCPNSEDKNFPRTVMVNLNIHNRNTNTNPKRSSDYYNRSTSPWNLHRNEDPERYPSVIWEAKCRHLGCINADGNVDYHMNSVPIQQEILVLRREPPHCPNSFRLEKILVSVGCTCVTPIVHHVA
The data set is described as follows: IL-8 release assay in human epithelial keratinocytes adult (HEKa). Format: cell-based. As to conditions: HEKa cells, 3 ng/mL HEK-human IL-17AA + 10 ng/mL human TNFalpha; read-out: Rel EC50 IL-8 release assay. Put shortly: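 IL-8 release, quantified by HTRF and normalized to controls, reports IL-17 signaling in HEKa cells treated with compound plus final 3 ng/mL IL-17AA (HEK-derived) and 10 ng/mL TNF-alpha for 68-72 h; TNF-alpha-only wells set 100% inhibition. Four-parameter logistic fits (r^2>0.9) give relative IC50 and Emax; PrestoBlue flags cytotoxicity.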

A short description of data set [2]: In vivo dosing of compounds in dog (pharmacokinetics, PO and i.v.). Also on record: species or system dog (male Beagles). The note with it: male, Beagle, whole blood, oral dose of Example 32 1 mg/kg. The protocol:
Example 139. In Vivo Dosing of Compounds in Dog
Dog pharmacokinetics (PK) of Examples 32 and 135 were studied in male Beagles. On the day of dosing, the animals were fasted overnight. They had free access to drinking water, except in immediate connection with dosing, and were allowed to eat from 4 hrs after dosing and onwards. The dogs were weighed on the morning prior to dosing and the individual dose volumes were adjusted on a per kg body weight basis.
Oral dosing. The dogs were dosed PO by oral gavage. The test compounds were dosed as suspensions in 1% methyl cellulose solution (2.5 mL/kg). The stomach tube was then flushed with at least 15 mL water post-dose to ensure that all test formulation entered the stomach.
Intravenous dosing. The dogs were dosed i.v. via an in-dwelling catheter in venae cephalica. The dose volume was 1 mL/kg of a solution of Example 32 (0.3 mg/mL) in HPB (hydroxypropyl beta cyclodextrin)/PEG-4 (polyethylene glycol-4)/water (20:20:60). […]
Study samples. […] The compounds were quantified in blood by means of LC-MS/MS.
Standard PK parameters were calculated using non-compartmental analysis and Phoenix WinNonLin 6.4 (Certara, Princeton, N.J.).
as §1

Each structure is given as a SMILES string.

As usually defined, the bioavailability is the share of a dose that reaches the circulation, judged against a reference dose that is usually intravenous. The low end stands for poor availability, the high end for good availability. The term EC50 denotes the concentration needed to bring the measured effect to its halfway point. On to `Cc1n[nH]c(C)c1-c1ccc(NC(=O)[C@@H](NC(=O)c2ccnn2C(C)C)C(C2CC2)C2CC2)cc1` (single isomer, unassigned) [Example 32], for which the bioavailability stood at 26% in data set [1] and 23% in data set [2]. For the same compound, the concentration for a half-maximal effect (EC50) at human IL-17AA was less than 0.1 µM.
Turning to `Cc1n[nH]c(N(C)C)c1-c1ccc(NC(=O)[C@@H](NC(=O)c2ccnn2C)C2CCCCC2)cc1` [Example 453, N-[(1S)-1-cyclohexyl-2-[4-[3-(dimethylamino)-5-methyl-1H-pyrazol-4-yl]anilino]-2-oxo-ethyl]-2-methyl-pyrazole-3-carboxamide], the EC50 on human IL-17AA fell in the range of 0.1 to 1 µM.
The same measure, in the same setting: the same measure for `Cc1n[nH]c(C)c1-c1ccc(NC(=O)[C@@H](NC(=O)N(C)CCCO)C2CCCCC2)cc1` [Example 459, (2S)-2-cyclohexyl-N-[4-(3,5-dimethyl-1H-pyrazol-4-yl)phenyl]-2-[[3-hydroxypropyl(methyl)carbamoyl]amino]acetamide]: greater than 1 µM; for `CCN(CC)C(=O)N[C@H](C(=O)Nc1ccc(-c2c(C)n[nH]c2C)cc1)C1CCCCC1` [Example 462, (2S)-2-cyclohexyl-2-(diethylcarbamoylamino)-N-[4-(3,5-dimethyl-1H-pyrazol-4-yl)phenyl]acetamide]: greater than 1 µM.
The same measure, in the same setting: the same measure for `Cc1n[nH]c(C)c1-c1ccc(NC(=O)[C@@H](NC(=O)N(C)CCO)C2CCCCC2)cc1` [Example 463, (2S)-2-cyclohexyl-N-[4-(3,5-dimethyl-1H-pyrazol-4-yl)phenyl]-2-[[2-hydroxyethyl(methyl)carbamoyl]amino]acetamide]: greater than 1 µM.
Still for that read-out and setting: the result for `Cc1n[nH]c(C)c1-c1ccc(NC(=O)[C@@H](NC(=O)N2CCCC2CCCO)C2CCCCC2)cc1` (stereo partly drawn) [Example 468, N-[(1S)-1-cyclohexyl-2-[4-(3,5-dimethyl-1H-pyrazol-4-yl)anilino]-2-oxo-ethyl]-2-(3-hydroxypropyl)-pyrrolidine-1-carboxamide] reads greater than 1 µM; that for `Cc1n[nH]c(C)c1-c1ccc(NC(=O)[C@@H](NC(=O)N(C)C(C)C)C2CCCCC2)cc1` [Example 469, (2S)-2-cyclohexyl-N-[4-(3,5-dimethyl-1H-pyrazol-4-yl)phenyl]-2-[[isopropyl(methyl)carbamoyl]amino]acetamide], 0.1 to 1 µM; that for `Cc1n[nH]c(C)c1-c1ccc(NC(=O)[C@@H](NC(=O)N2CCCCC2)C2CCCCC2)cc1` [Example 472, N-[(1S)-1-cyclohexyl-2-[4-(3,5-dimethyl-1H-pyrazol-4-yl)anilino]-2-oxo-ethyl]piperidine-1-carboxamide], greater than 1 µM.
Turning to `Cc1n[nH]c(C)c1-c1ccc(NC(=O)[C@@H](NC(=O)N2CCCC2C(C)C)C2CCCCC2)cc1` (stereo partly drawn) [Example 475, N-[(1S)-1-cyclohexyl-2-[4-(3,5-dimethyl-1H-pyrazol-4-yl)anilino]-2-oxo-ethyl]-2-isopropyl-pyrrolidine-1-carboxamide], the EC50 at human IL-17AA is greater than 1 µM.
On the same count and under the same terms, the result for `Cc1n[nH]c(C)c1-c1ccc(NC(=O)[C@@H](NC(=O)N(C)CCCCO)C2CCCCC2)cc1` [Example 476, (2S)-2-cyclohexyl-N-[4-(3,5-dimethyl-1H-pyrazol-4-yl)phenyl]-2-[[4-hydroxybutyl(methyl)carbamoyl]amino]acetamide] reads 0.1 to 1 µM.
On the same count and under the same terms, the same measure for `Cc1n[nH]c(C)c1-c1ccc(NC(=O)[C@@H](NC(=O)N2CCCC2)C2CCCCC2)cc1` [Example 477, N-[(1S)-1-cyclohexyl-2-[4-(3,5-dimethyl-1H-pyrazol-4-yl)anilino]-2-oxo-ethyl]pyrrolidine-1-carboxamide]: greater than 1 µM; for `Cc1n[nH]c(C)c1-c1ccc(NC(=O)[C@@H](NC(=O)N2CCOCC2)C2CCCCC2)cc1` [Example 478, N-[(1S)-1-cyclohexyl-2-[4-(3,5-dimethyl-1H-pyrazol-4-yl)anilino]-2-oxo-ethyl]morpholine-4-carboxamide]: greater than 1 µM; for `Cc1n[nH]c(C)c1-c1ccc(NC(=O)[C@@H](NC(=O)OCCCCO)C(C2CC2)C2CC2)cc1` [Example 479, 4-hydroxy butyl N-[(1S)-1-(dicyclopropylmethyl)-2-[4-(3,5-dimethyl-1H-pyrazol-4-yl)anilino]-2-oxo-ethyl]carbamate]: 0.1 to 1 µM.
Still for that read-out and setting: the same measure for `Cc1n[nH]c(C)c1-c1ccc(NC(=O)[C@@H](NC(=O)O[C@H](C)CC[C@@H](C)O)C(C2CC2)C2CC2)cc1` [Example 480, [(1R,4R)-4-hydroxy-1-methyl-pentyl] N-[(1S)-1-(dicyclopropylmethyl)-2-[4-(3,5-dimethyl-1H-pyrazol-4-yl)anilino]-2-oxo-ethyl]carbamate]: 0.1 to 1 µM.
With `Cc1n[nH]c(C)c1-c1ccc(NC(=O)[C@@H](NC(=O)O[C@@H](C)CC[C@H](C)O)C(C2CC2)C2CC2)cc1` [Example 481, [(1S,4S)-4-hydroxy-1-methyl-pentyl] N-[(1S)-1-(dicyclopropylmethyl)-2-[4-(3,5-dimethyl-1H-pyrazol-4-yl)anilino]-2-oxo-ethyl]carbamate], the EC50 on human IL-17AA is greater than 1 µM.
The same measure, in the same setting: the result for `Cc1nn(COP(=O)(O)O)c(C)c1-c1ccc(NC(=O)[C@@H](NC(=O)c2ccnn2[C@@H](C)CO)C(C2CC2)C2CC2)cc1` [Example 483, Disodium [4-[4-[[(2S)-3,3-dicyclopropyl-2-[[2-[(1S)-2-hydroxy-1-methyl-ethyl]pyrazole-3-carbonyl]amino]propanoyl]amino]phenyl]-3,5-dimethyl-pyrazol-1-yl]methyl phosphate] reads less than 0.1 µM.

(Values after US11377425B1, “Small molecule modulators of IL-17” (LEO Pharma A/S, priority 2018, dated 2022).)
